Four molecules from US9877946B2, “Method for treating, managing, inhibiting, or preventing obesity” (RESEARCH & BUSINESS FOUNDATION SUNGKYUNKWAN UNIVERSITY, priority 2014, dated 2018) can be followed below.

Each structure is given as a SMILES string.

Series [1] concerns UCP-1 expression in C3H10T1/2 cells. The experiment in a line: UCP-1 expression in differentiated C3H10T1/2 adipocytes, real-time PCR. Format: cell-based, mouse. As to the method: Differentiated C3H10T1/2 adipocytes were treated with the butein and the derivatives for 24 hours, and the expression levels of UCP-1 and PRDM4 were investigated using real-time PCR.
(In general: In qPCR the cycle at which signal appears reflects the starting amount.)

Series [2] has as its system PRDM4 expression in C3H10T1/2 cells. Put plainly: PRDM4 expression in differentiated C3H10T1/2 adipocytes, real-time PCR. The conditions noted are these: 24 hours, FIG. 25. Format: cell-based, mouse. As to the method: To confirm an anti-obesity effect of the butein derivative, changes in expression levels of UCP-1 and PRDM4 by treatment of the butein derivative (Formulas 1-1 to 1-8 and 1-10 to 1-14) were measured. Differentiated C3H10T1/2 adipocytes were treated with the butein and the derivatives for 24 hours, and the expression levels of UCP-1 and PRDM4 were investigated using real-time PCR.

Series [3] deals with T37i cells (brown fat precursor cells). The experiment in a line: Brown adipocyte marker expression in differentiated T37i cells, real-time PCR. Format: cell-based. The conditions noted are these: butein 5, 10 and 20 μM, 6 days, FIG. 2. As to the method:
To confirm an increase in number of brown adipocytes by butein treatment, brown fat precursor cells, T37i cells, were used. The T37i cells were cultured in a medium containing 5 μg/ml insulin and 1 nM triiodothyronine (T3) for 2 days, and then the differentiation into adipocytes using a medium containing 5 μg/ml insulin was induced for 6 to 8 days. The differentiation-induced adipocytes were treated with butein for 6 days by concentrations (5, 10 and 20 μM) and stained with Oil Red O, and then mRNA expression levels of PPARγ and aP2 related to the adipocyte differentiation and brown adipocyte markers, that is, UCP-1, PRDM16 and Cidea genes, were confirmed through real-time PCR.

In series [4] the test system is UCP-1 expression in MEF cells. The experiment in a line: UCP-1 expression in MEF cells. It counts as cell-based, mouse. The conditions noted are these: DMSO-treated control, FIG. 4. From the text: An increase in expression level of UCP-1 by butein treatment in C3H10T1/2 cells was compared to those by treatment of sulfuretin, fisetin, resveratrol and genistein, which are known as materials having an influence on adipocytes, and the increase in expression level of UCP-1 by butein treatment in MEF cells was compared to a DMSO-treated group as a control.

Series [5] has as its system epididymal fat, subcutaneous fat and brown fat. Put plainly: Marker expression in adipose tissues of mice treated for 14 days, real-time PCR. It counts as in vivo. The conditions noted are these: 5 mg/kg abdominal injection, FIGS. 6 to 8. The procedure: To examine activities of butein to increase the numbers of beige and brown adipocytes and inhibit white adipocytes in vivo, expression of markers in adipose tissues were measured after mice were treated with butein for 14 days. 6 mice were treated with 5 mg/kg of the butein through abdominal injection, and as a control, 6 mice were treated with only a solvent through abdominal injection. After 14 days, expression levels of markers for white fat and beige (brown) fat in epididymal fat, subcutaneous fat and brown fat were confirmed through real-time PCR.

The test system of series [6] is HFD obesity-induced C57BL6/J mice. Put plainly: HFD obesity-induced mice, comparison with PBS-treated group. Format: in vivo. As to the method: To confirm an anti-obesity effect of butein, obesity was induced in C57BL6/J mice by HFD, and the mice were treated with butein through abdominal injection. 7-week-old mice were adjusted for 1 week, fed with HFD (60% fat, purchased from Research Diet) for 8 weeks to induce obesity, and butein was treated daily at 5 mg/kg and 15 mg/kg into two groups of mice, each group having 7 mice. As controls, a normal diet food intake group (5 mice) and a group fed with HFD and treated with PBS (7 mice) were used. Increases in body weight during the treatment period and weights of various organs were compared, and after 8 weeks, a glucose tolerance test (GTT) and an insulin tolerance test (ITT) were performed in combination with histological and hematological analyses.

The test system is the same in series [7]. The experiment in a line: HFD obesity-induced mice, comparison with resveratrol-treated group. Format: in vivo. The conditions noted are these: for body weight compared to the control: 28-week-old mice. The procedure: To confirm an anti-obesity effect of butein, obesity was induced to C57BL6/J mice by HFD, and changes in body weight according to butein treatment were confirmed. Specifically, 7-week-old mice were adjusted for 1 week, and fed with HFD (60% fat, purchased from Research Diet) for 12 weeks to induce obesity. Afterward, 30 mg/kg of butein was treated daily into 8 of the obesity-induced mice for 8 weeks. As controls, a PBS-treated group (7 mice) and a group (8 mice) treated with resveratrol, which is known to have an effect on preventing obesity, were used. After the 8-week treatment, increases in body weight were compared, and 8 weeks later, a GTT and a ITT were performed in combination with a hematological analysis.

The subject of another series is PRDM4 gene. The experiment in a line: Microarray for gene inducing bioactivity of butein. It counts as cell-based.
[8] abbreviates: differentiated C3H10T1/2 adipocytes, 24 hours, FIG. 25.
Where [9] appears, read: HFD 8 weeks, butein 5 and 15 mg/kg daily, vs HFD control.

Take `O=C(/C=C/c1ccc(O)c(O)c1)c1ccc(O)cc1O` [Compound 1-1, butein]: in series [1] (C3H10T1/2 cells, FIG. 3), the “expression of UCP-1 compared to sulfuretin, fisetin, resveratrol and genistein” value is reported as “increased more than three times”. Moreover, the “expression of UCP-1” value in series [1] (butein 5, 10 and 20 μM, 24 hours, FIG. 1) was “the expression of UCP-1 increased”. The “expression level of UCP-1” value in series [1] (setting [8]) is “significant increases”. Further, in series [1] (differentiated C3H10T1/2 cells, 24 hours, FIG. 5), the “expression level of UCP-1” value is “specifically and considerably increased”. Besides, the “expression level of PRDM4” value in series [2] is “significant increases”. For the same molecule, in series [3], the “expression of Cidea” value is reported as “increased”, the “expression of PRDM16” value is on record as “increased” and the “expression of UCP-1” value was “increased”. Also, the “expression of UCP-1 compared to the control” value in series [4] is “more than 10 times”. In addition, in series [5], the “adipocyte markers PPARγ and aP2” value is listed as “decreases”; the “brown adipocyte markers UCP-1, PRDM16 Cox8b and Cidea” value was “increases”; the “white adipocyte markers resistin and Nnmt” value is on record as “decreases”. In series [6] (15 mg/kg of butein, 8 weeks), the “UCP-1, PRDM16, Cox8b, PGC-1α, CIDEA, COX7a and Dio2 specifically expressed in beige adipocytes” value is on record as “increased”; the “glucose-insulin metabolism (GTT and ITT)” value is recorded as “significantly improved”. In series [6] (setting [9]), the body weight entry is on record as “tendency to concentration-dependent decreases”; the “weights of adipose tissues of livers and internal organs” value was “tendency to concentration-dependent decreases”. Besides, the “hematological analysis: glucose, cholesterol, neutral fat, HDL, LDL and a fatty acid” value in series [6] (high dosage of butein) is on record as “significant differences”. Further, the “effect of decreasing body weight compared to the resveratrol-treated group” value in series [7] (30 mg/kg daily for 8 weeks after 12 weeks HFD) is reported as “considerably excellent effect of decreasing a body weight”. Further, the “decrease in body weight compared to the PBS-treated group” value in series [7] (30 mg/kg daily for 8 weeks after 12 weeks HFD, FIG. 20) was “approximately 10%”. Further, the “body weight compared to the control” value in series [7] was “considerable decrease”. Further, in series [7] (HFD-But group, FIG. 21), the “glucose-insulin metabolism (GTT and ITT)” value is “considerably improved”; the rectal temperature entry is listed as “increased”. Besides, the food intake result in series [7] (between three groups, FIG. 20C) was “no differences”. Moreover, the PRDM4 gene expression entry in the series with PRDM4 gene was “increased in expression by more than approximately twice”.
On to `COc1cc(C2CC(=O)c3ccc(O)cc3O2)ccc1F` (stereo not drawn) [Compound 1-11, 2-(4-fluoro-3-methoxyphenyl)-7-hydroxychroman-4-one], for which the “expression level of UCP-1 compared to the butein-treated group (BFI)” value in series [1] (setting [8]) was “considerably increased”. The “expression level of PRDM4 compared to the butein-treated group (BFI)” value in series [2] is listed as “considerably increased”.
`O=C(/C=C/c1ccc(O)c(O)c1)c1ccc(O)cc1` [Compound 1-12, (E)-3-(3,4-dihydroxyphenyl)-1-(4-hydroxyphenyl)prop-2-en-1-one]: the “expression level of UCP-1 compared to the butein-treated group (BFI)” value in series [1] (setting [8]) was “considerably increased”. For the same molecule, in series [2], the “expression level of PRDM4 compared to the butein-treated group (BFI)” value is “considerably increased”.
Take `Oc1ccc(C=Cc2cc(O)cc(O)c2)cc1` [resveratrol, reference compound]: the “body weight compared to the control” value in series [7] is “no changes”. The food intake entry in series [7] (mouse, in vivo) is recorded as “no differences”.
